Data published in ChEMBL document CHEMBL1201862, “PubChem BioAssay data set” (2004).
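Method: 48-hour compound exposure of cells in 96-well plates, five concentrations, linear interpolation of endpoints. At the GI50, growth is halved.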 Activity calls are given as the source filed them. No stated cut-off is given here; in the data, active = GI50 up to about 1.1 µM and inactive = higher.

Assays:
Experiment in all cases: DTP human tumour cell line panel, 48 h
CAKI-1 = system: CAKI-1
NCI/ADR-RES = system: NCI/ADR-RES
HOP-62 = system: HOP-62
EKVX = system: EKVX
CCRF-CEM = system: CCRF-CEM
MOLT-4 = system: MOLT-4
PC-3 = system: PC-3
IGROV-1 = system: IGROV-1
SK-MEL-2 = system: SK-MEL-2
MDA-N = system: MDA-N
SR = system: SR
LOX IMVI = system: LOX IMVI
OVCAR-3 = system: OVCAR-3
DU-145 = system: DU-145
A549 = system: A549
SF-539 = system: SF-539
NCI-H522 = system: NCI-H522
UACC-62 = system: UACC-62
A498 = system: A498
T47D = system: T47D
ACHN = system: ACHN
MDA-MB-231 = system: MDA-MB-231
HCT-116 = system: HCT-116
HCC 2998 = system: HCC 2998
UACC-257 = system: UACC-257
SNB-19 = system: SNB-19
HL-60 = system: HL-60
OVCAR-4 = system: OVCAR-4
SK-OV-3 = system: SK-OV-3
TK-10 = system: TK-10
HT-29 = system: HT-29
COLO 205 = system: COLO 205
MDA-MB-435 = system: MDA-MB-435
SK-MEL-5 = system: SK-MEL-5
RPMI-8226 = system: RPMI-8226
OVCAR-5 = system: OVCAR-5
SNB-75 = system: SNB-75
Malme-3M = system: Malme-3M
K562 = system: K562
UO-31 = system: UO-31
M14 = system: M14
HOP-92 = system: HOP-92
SW-620 = system: SW-620
BT-549 = system: BT-549
SF-295 = system: SF-295
U-251 = system: U-251
NCI-H226 = system: NCI-H226
KM12 = system: KM12
Hs-578T = system: Hs-578T
RXF 393 = system: RXF 393
SF-268 = system: SF-268
SN12C = system: SN12C
OVCAR-8 = system: OVCAR-8
SK-MEL-28 = system: SK-MEL-28
NCI-H23 = system: NCI-H23
NCI-H460 = system: NCI-H460
HCT-15 = system: HCT-15
786-0 = system: 786-0
MCF7 = system: MCF7

Question: How did the GI50 (CAKI-1) turn out when `C[C@]12CCC3C4=C(CCC3C1CCC2=O)C(=O)[C@H]1O[C@H]1C4=O` (stereo partly drawn) was run?
Answer: 0.275 µM (active)

Question: And the GI50 (NCI/ADR-RES)?
Answer: 4.02 µM (inactive)

Question: What about the GI50 (HOP-62) of the same molecule?
Answer: 3.27 µM (inactive)

Question: And the GI50 (EKVX)?
Answer: 14.3 µM (inactive)

Question: What about the GI50 (CCRF-CEM) of the same molecule?
Answer: 1.12 µM (inactive)

Question: What about the GI50 (MOLT-4) of the same molecule?
Answer: 0.785 µM (active)

Question: What about the GI50 (PC-3) of the same molecule?
Answer: 4.18 µM (inactive)

Question: And the GI50 (IGROV-1)?
Answer: 2.24 µM (inactive)

Question: And the GI50 (SK-MEL-2)?
Answer: 12.2 µM (inactive)

Question: What about the GI50 (MDA-N) of the same molecule?
Answer: 7.18 µM (inactive)

Question: And the GI50 (SR)?
Answer: 0.538 µM (active)

Question: What about the GI50 (LOX IMVI) of the same molecule?
Answer: 1.89 µM (inactive)

Question: What about the GI50 (OVCAR-3) of the same molecule?
Answer: 1.46 µM (inactive)

Question: And the GI50 (DU-145)?
Answer: 3.12 µM (inactive)

Question: And the GI50 (A549)?
Answer: 11 µM (inactive)

Question: And the GI50 (SF-539)?
Answer: 1.92 µM (inactive)

Question: And the GI50 (NCI-H522)?
Answer: 1.84 µM (inactive)

Question: What about the GI50 (UACC-62) of the same molecule?
Answer: 2.94 µM (inactive)

Question: And the GI50 (A498)?
Answer: 17.1 µM (inactive)

Question: What about the GI50 (T47D) of the same molecule?
Answer: 0.61 µM (active)

Question: What about the GI50 (ACHN) of the same molecule?
Answer: 2.57 µM (inactive)

Question: And the GI50 (MDA-MB-231)?
Answer: 1.8 µM (inactive)

Question: And the GI50 (HCT-116)?
Answer: 0.453 µM (active)

Question: What about the GI50 (HCC 2998) of the same molecule?
Answer: 1.9 µM (inactive)

Question: And the GI50 (UACC-257)?
Answer: 17.4 µM (inactive)

Question: What about the GI50 (SNB-19) of the same molecule?
Answer: 15.6 µM (inactive)

Question: And the GI50 (HL-60)?
Answer: 2.67 µM (inactive)

Question: And the GI50 (OVCAR-4)?
Answer: 3.05 µM (inactive)

Question: And the GI50 (SK-OV-3)?
Answer: 13.9 µM (inactive)

Question: And the GI50 (TK-10)?
Answer: 3.35 µM (inactive)

Question: And the GI50 (HT-29)?
Answer: 1.36 µM (inactive)

Question: What about the GI50 (COLO 205) of the same molecule?
Answer: 4.33 µM (inactive)

Question: And the GI50 (MDA-MB-435)?
Answer: 11.8 µM (inactive)

Question: What about the GI50 (SK-MEL-5) of the same molecule?
Answer: 10 µM (inactive)

Question: And the GI50 (RPMI-8226)?
Answer: 0.641 µM (active)

Question: And the GI50 (OVCAR-5)?
Answer: 3.77 µM (inactive)

Question: And the GI50 (SNB-75)?
Answer: 3.23 µM (inactive)

Question: And the GI50 (Malme-3M)?
Answer: 21.6 µM (inactive)

Question: What about the GI50 (K562) of the same molecule?
Answer: 1.29 µM (inactive)

Question: And the GI50 (UO-31)?
Answer: 2.31 µM (inactive)

Question: What about the GI50 (M14) of the same molecule?
Answer: 4.05 µM (inactive)

Question: And the GI50 (HOP-92)?
Answer: 7.67 µM (inactive)

Question: And the GI50 (SW-620)?
Answer: 1.78 µM (inactive)

Question: And the GI50 (BT-549)?
Answer: 1.98 µM (inactive)

Question: And the GI50 (SF-295)?
Answer: 15.3 µM (inactive)

Question: What about the GI50 (U-251) of the same molecule?
Answer: 2.75 µM (inactive)

Question: What about the GI50 (NCI-H226) of the same molecule?
Answer: 2.18 µM (inactive)

Question: What about the GI50 (KM12) of the same molecule?
Answer: 5.43 µM (inactive)

Question: And the GI50 (Hs-578T)?
Answer: 9.51 µM (inactive)

Question: And the GI50 (RXF 393)?
Answer: 1.6 µM (inactive)

Question: And the GI50 (SF-268)?
Answer: 2.31 µM (inactive)

Question: What about the GI50 (SN12C) of the same molecule?
Answer: 2.64 µM (inactive)

Question: What about the GI50 (OVCAR-8) of the same molecule?
Answer: 2.09 µM (inactive)

Question: And the GI50 (SK-MEL-28)?
Answer: 12.3 µM (inactive)

Question: What about the GI50 (NCI-H23) of the same molecule?
Answer: 2.77 µM (inactive)

Question: And the GI50 (NCI-H460)?
Answer: 7.46 µM (inactive)

Question: And the GI50 (HCT-15)?
Answer: 1.36 µM

Question: And the GI50 (786-0)?
Answer: 1.83 µM (inactive)

Question: And the GI50 (MCF7)?
Answer: 2.18 µM (inactive)

Question: With `O=S(=O)(O)c1cc(S(=O)(=O)O)c2c(/N=N/c3cccc4ccccc34)c(O)ccc2c1` as the molecule, how does the GI50 (CAKI-1) read?
Answer: > 100 µM (inactive)

Question: And the GI50 (NCI/ADR-RES)?
Answer: > 100 µM (inactive)

Question: What about the GI50 (HOP-62) of the same molecule?
Answer: > 100 µM (inactive)

Question: What about the GI50 (EKVX) of the same molecule?
Answer: > 100 µM (inactive)

Question: What about the GI50 (CCRF-CEM) of the same molecule?
Answer: > 100 µM (inactive)

Question: What about the GI50 (MOLT-4) of the same molecule?
Answer: > 100 µM (inactive)

Question: And the GI50 (PC-3)?
Answer: > 100 µM (inactive)

Question: And the GI50 (IGROV-1)?
Answer: > 100 µM (inactive)

Question: What about the GI50 (SK-MEL-2) of the same molecule?
Answer: > 100 µM (inactive)

Question: What about the GI50 (MDA-N) of the same molecule?
Answer: > 100 µM (inactive)

Question: And the GI50 (SR)?
Answer: > 100 µM (inactive)

Question: What about the GI50 (LOX IMVI) of the same molecule?
Answer: > 100 µM (inactive)

Question: And the GI50 (OVCAR-3)?
Answer: > 100 µM (inactive)

Question: And the GI50 (DU-145)?
Answer: > 100 µM (inactive)

Question: What about the GI50 (A549) of the same molecule?
Answer: > 100 µM (inactive)

Question: And the GI50 (SF-539)?
Answer: > 100 µM (inactive)

Question: And the GI50 (NCI-H522)?
Answer: > 100 µM (inactive)

Question: And the GI50 (UACC-62)?
Answer: > 100 µM (inactive)

Question: And the GI50 (A498)?
Answer: > 100 µM (inactive)

Question: What about the GI50 (T47D) of the same molecule?
Answer: > 100 µM (inactive)

Question: What about the GI50 (ACHN) of the same molecule?
Answer: > 100 µM (inactive)

Question: What about the GI50 (MDA-MB-231) of the same molecule?
Answer: > 100 µM (inactive)

Question: And the GI50 (HCT-116)?
Answer: > 100 µM (inactive)

Question: And the GI50 (HCC 2998)?
Answer: > 100 µM (inactive)

Question: What about the GI50 (UACC-257) of the same molecule?
Answer: > 100 µM (inactive)

Question: What about the GI50 (SNB-19) of the same molecule?
Answer: > 100 µM (inactive)

Question: What about the GI50 (HL-60) of the same molecule?
Answer: > 100 µM (inactive)

Question: What about the GI50 (OVCAR-4) of the same molecule?
Answer: > 100 µM (inactive)

Question: And the GI50 (SK-OV-3)?
Answer: > 100 µM (inactive)

Question: And the GI50 (TK-10)?
Answer: > 100 µM (inactive)

Question: And the GI50 (HT-29)?
Answer: > 100 µM (inactive)

Question: What about the GI50 (COLO 205) of the same molecule?
Answer: > 100 µM (inactive)

Question: What about the GI50 (MDA-MB-435) of the same molecule?
Answer: > 100 µM (inactive)

Question: What about the GI50 (SK-MEL-5) of the same molecule?
Answer: > 100 µM (inactive)

Question: What about the GI50 (RPMI-8226) of the same molecule?
Answer: > 100 µM (inactive)

Question: What about the GI50 (OVCAR-5) of the same molecule?
Answer: > 100 µM (inactive)

Question: What about the GI50 (SNB-75) of the same molecule?
Answer: > 100 µM (inactive)

Question: What about the GI50 (Malme-3M) of the same molecule?
Answer: > 100 µM (inactive)

Question: And the GI50 (K562)?
Answer: > 100 µM (inactive)

Question: And the GI50 (UO-31)?
Answer: > 100 µM (inactive)

Question: And the GI50 (M14)?
Answer: > 100 µM (inactive)

Question: And the GI50 (HOP-92)?
Answer: > 100 µM (inactive)

Question: What about the GI50 (SW-620) of the same molecule?
Answer: > 100 µM (inactive)

Question: And the GI50 (BT-549)?
Answer: > 100 µM (inactive)

Question: And the GI50 (SF-295)?
Answer: > 100 µM (inactive)

Question: And the GI50 (U-251)?
Answer: > 100 µM (inactive)

Question: What about the GI50 (NCI-H226) of the same molecule?
Answer: > 100 µM (inactive)

Question: What about the GI50 (KM12) of the same molecule?
Answer: > 100 µM (inactive)

Question: And the GI50 (Hs-578T)?
Answer: > 100 µM (inactive)

Question: And the GI50 (RXF 393)?
Answer: > 100 µM (inactive)

Question: What about the GI50 (SF-268) of the same molecule?
Answer: > 100 µM (inactive)

Question: What about the GI50 (SN12C) of the same molecule?
Answer: > 100 µM (inactive)

Question: What about the GI50 (OVCAR-8) of the same molecule?
Answer: > 100 µM (inactive)

Question: And the GI50 (SK-MEL-28)?
Answer: > 100 µM (inactive)

Question: And the GI50 (NCI-H23)?
Answer: > 100 µM (inactive)

Question: What about the GI50 (NCI-H460) of the same molecule?
Answer: > 100 µM (inactive)

Question: And the GI50 (HCT-15)?
Answer: > 100 µM

Question: And the GI50 (786-0)?
Answer: > 100 µM (inactive)

Question: And the GI50 (MCF7)?
Answer: > 100 µM (inactive)
